Ends that are not written are not given here.
Columns and labels:
HEK-293 T cells = type: cell-based; settings: pyrene butyrate treatment
[1] = previous literature reports; cited from earlier work
[2] = system: HEK-293 T cells expressing PH-LgBiT; test: NanoLuc; type: cell-based; settings: PyB 25–200 μM in PBS 5 min before 1 μM YARA-HiBiT or R6-HiBiT (Figure S29)
[3] = system: A7r5 rat aortic vascular smooth muscle cells; test: Cell viability; type: cell-based; settings: 10 μM peptide, A7r5 cells (Figure S19-G)

Compound	Cell viability at 100 μM (29 μg/mL) (HEK-293 T cells)	Cell viability at 200 μM (58 μg/mL) (HEK-293 T cells)	Activity enhancement reported for pyrene butyrate [1]	Increase in activity over peptide alone with pyrene butyrate [2]	Toxicity of peptide dose [3]
O=C(O)CCCc1ccc2ccc3cccc4ccc1c2c34 [pyrene butyrate, 1-pyrenebutyric acid]	65%	57%	1.5–5 fold	≤ 1.3 fold	–
YARAAARQARAKALARQLGVAA [YARA-MK2i]	–	–	–	–	nontoxic
